Laboratory results as given in PubChem BioAssay AID179 (DTP/NCI, 2004).
Calls of active or inactive are those of the source.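 The calls were made as follows: active = compounds giving half or more protection of infected cells from virus-caused growth loss, again on retest; inactive = the rest.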

Tested on: CEM cells HIV-1 protection, formazan growth assay
Assay: NCI AIDS Antiviral Assay
Details: for IC50: measured here: growth of uninfected CEM cells
Procedure, shortened: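 CEM (human) cells, HIV-1 infected vs uninfected, 5-point dosing, formazan growth read-out. Retest threshold 50% protection.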

| Compound | EC50 | IC50 | outcome |
| --- | --- | --- | --- |
| CCOC(=O)Nc1cc2c(c(N)n1)N=C(c1ccccc1)CN2 | > 0.17 µM | 0.0316 µM |  |
| Cc1cc(C)c2cnnn2n1 | > 1700 µM | > 1700 µM |  |
| CC12CCCC(O)C1CCC1=CC3(CCC12)SCCS3 (stereo unspecified) | > 12 µM | > 12 µM |  |
| O=C(NCc1cc(CNC(=O)c2cccc(O)c2O)cc(CNC(=O)c2cccc(O)c2O)c1)c1cccc(O)c1O | > 200 µM | 1.95 µM |  |
| CCOC(=O)CC1COc2ccc3c(c21)OCO3 (stereo unspecified) | > 525 µM | 339 µM |  |
| COc1ccc(/C=C/C(=O)OC/C=C/c2ccc3c(c2)OCO3)cc1OC | > 200 µM | 102 µM |  |
| NC(=O)NN=C1Cc2ccccc2C1 | > 200 µM | > 200 µM |  |
| O=C(O)C1CCCN1C(=O)c1cc(Cl)ccn1 (stereo unspecified) | > 200 µM | > 200 µM |  |
| CCCCCCCCCCCCCCCCNc1ccn(C2CC(OP(=O)(O)OCC3OC(n4cc(C)c(=O)[nH]c4=O)CC3N=[N+]=[N-])C(CO)O2)c(=O)n1 (stereo unspecified) | 0.182 µM | 77.6 µM |  |
| O=S(=O)(O)CCCCS(=O)(=O)O | > 200 µM | > 200 µM |  |
| NC(CSS(=O)(=O)O)=NCCCc1nc2ccccc2[nH]1 | > 200 µM | 45.7 µM |  |
| Cc1cc2c(cc1Cl)SC(C(=O)c1cccc([N+](=O)[O-])c1)=NS2(=O)=O | 120 µM | > 200 µM |  |
| CC(Cc1ccc(O)c(O)c1)C(C)Cc1ccc(O)c(O)c1 (stereo unspecified) | > 200 µM | 8.91 µM |  |
| Nc1ccc(/C=C/c2ccc(N)cc2S(=O)(=O)O)c(S(=O)(=O)O)c1 |  |  | inactive |
| NCCNc1ccc([N+](=O)[O-])c2c(=O)c3ccccc3[nH]c12 |  |  | inactive |
| CCOC(=O)C1(Cc2ccc(C)cc2)Cc2ccc(C)cc2C1=O (stereo unspecified) | > 200 µM | 4.68 µM |  |
| CC1=NC(C)(CO)CO1 (stereo unspecified) | > 200 µM | > 200 µM |  |
| O=C(O)CCc1nn2c(nc1=O)sc1ccc3ccccc3c12 | > 50.1 µM | > 50.1 µM |  |
| CCN(CC)CCCCC1CCN(CC(=O)N2CC(C)C(=O)Nc3ccccc32)CC1 (stereo unspecified) | > 251 µM | > 251 µM |  |
| Cc1ccc(SCC(CSCCO)OCn2cnc3c2NC(N)=NC32OCCO2)cc1 (stereo unspecified) | > 200 µM | > 200 µM |  |
| Cn1c2ccccc2c2[nH]c3ccccc3c(=O)c21 | > 200 µM | 13.8 µM |  |
| OCc1ccc2c(c1)CC1(Cc3ccccc3C1)C2 | > 200 µM | 20 µM |  |
| NC(CCC(=O)NC(CSSCCCCS(=O)O)C(=O)NCC(=O)O)C(=O)O (stereo unspecified) |  |  | inactive |

| Compound | EC50 | IC50 | outcome |
| --- | --- | --- | --- |
| CC(=O)OCC(OC(C)=O)C(OC(C)=O)C(Cn1c(=O)cc(C)c2ccc(C)c(C)c21)OC(C)=O (stereo unspecified) | > 200 µM | > 200 µM |  |
| O=C1CCCCC1C(O)(C(F)(F)F)C(F)(F)Cl (stereo unspecified) | > 200 µM | 85.1 µM |  |
| CC(=O)ON(C)C1CC(=O)OC1CO[Si](C)(C)C(C)(C)C (stereo unspecified) | > 200 µM | 93.3 µM |  |
| C[N+](C)(C)CC(=O)N/N=C(/Cc1nc2ccc(Cl)cc2[nH]c1=O)C1=NS(=O)(=O)c2cc(S(N)(=O)=O)c(Cl)cc2N1 | > 269 µM | > 269 µM |  |
| Cc1ccc(C(=O)/C=C/c2ccccc2O)c(C)c1 | 91.2 µM | 102 µM |  |
| S=C1SCN(C2CCCCCCCCCCC2)CN1C1CCCCCCCCCCC1 |  |  | inactive |
| CCCc1cc(=O)oc2c3c(c4c(c12)OC(C)(C)CC4)O[C@H](C)[C@@H](C)[C@@H]3O | 0.316 µM | 8.13 µM |  |
| Cc1nc(C)c(C(=O)NNC(=O)C[n+]2ccccc2)cc1C(=O)NNC(=O)C[n+]1ccccc1 | > 200 µM | > 200 µM |  |
| C1=C(c2ccccc2)CN(c2ccccc2)OC1 | > 57.5 µM | > 57.5 µM |  |
| CC(C#N)N(CCc1ccccc1)C(=O)c1ccccc1 (stereo unspecified) | > 200 µM | > 200 µM |  |
| COC(=O)C1CCc2nnc(-c3ccccc3)n21 (stereo unspecified) | 955 µM | 1020 µM |  |
| COc1cccc2c(=O)oc(-c3ccc(C(C)(C)C)cc3)nc12 | > 200 µM | 64.6 µM |  |
| Cc1nn(C(=O)c2ccc(Cl)cc2)c2c1C(c1ccccc1)SC(N)=N2 (stereo unspecified) |  |  | inactive |
| Cc1ccc(/C(C#N)=C/c2ccc(N(C)C)cc2)cc1 | > 200 µM | 1.29 µM |  |
| NC1=NS(=O)(=O)Nc2nonc21 | > 1320 µM | > 1320 µM |  |
| Cc1cc(S(=O)(=O)Nc2nc(Nc3ccc(Cl)cc3)nn2C)c(S)cc1Cl | > 200 µM | 83.2 µM |  |
| Cn1cc(N)cc1C(=O)Nc1cc(C(=O)Nc2ccc3cc(S(=O)(=O)O)cc(S(=O)(=O)O)c3c2)n(C)n1 | 18.2 µM | > 100 µM |  |
| CN(C)C1C(CO)OC(n2cnc3c(N)ncnc32)C1O (stereo unspecified) | > 200 µM | > 200 µM |  |
| COC1/C=C/OC2(C)Oc3c(C)c(O)c4c(O)c(cc(OCC(=O)N(Cc5ccccc5)Cc5ccccc5)c4c3C2=O)NC(=O)/C(C)=C/C=C/C(C)C(O)C(C)C(O)C(C)C(OC(C)=O)C1C (stereo unspecified) |  |  | inactive |
| CCCc1c2c([nH]c(=O)c1C)C(=O)c1[nH]c(=O)c(C)c(CCC)c1C2=O |  |  | inactive |
| O=c1nc(SSc2ccn(C3OC(CO)C(O)C3O)c(=O)n2)ccn1C1OC(CO)C(O)C1O (stereo unspecified) | > 200 µM | 2.63 µM |  |
| Cc1cc2c(cc1C)NC(=O)C(NC(=O)/C=C/c1ccccc1)C=N2 (stereo unspecified) | > 56.2 µM | 38.9 µM |  |
| COc1c(OC2OC(CO)C(O)C(O)C2O)cc2occ(-c3ccc4c(c3)OCO4)c(=O)c2c1O (stereo unspecified) | > 200 µM | > 200 µM |  |

| Compound | EC50 | IC50 | outcome |
| --- | --- | --- | --- |
| COC(=O)C(C(=O)C(=O)Nc1c(C)cccc1C)c1cnc2ccccc2n1 (stereo unspecified) | > 50.1 µM | > 50.1 µM |  |
| OCC12C3C4C1C1C2C3C41CO (stereo unspecified) | > 1510 µM | > 1510 µM |  |
| NC(CCCCNCC(N)C(=O)O)C(=O)O (stereo unspecified) | > 933 µM | > 933 µM |  |
| O=c1[nH]c(Nc2cc(Cl)cc(Cl)c2)nc2nc[nH]c12 | > 200 µM | > 200 µM |  |
| Clc1cccc(N=C/C=C/Nc2cccc(Cl)c2)c1 | > 200 µM | 30.9 µM |  |
| O=C1CCCC(=O)NNC(=O)Nc2ccc(cc2)Cc2ccc(cc2)NC(=O)NN1 | > 30.9 µM | > 30.9 µM |  |
| CCCCn1/c(=N/C(=S)N(C)C)ss/c1=N\C(=S)N(C)C |  |  | inactive |
| COc1cc2ccc1OCc1cccc(n1)COc1ccc(cc1OC)C=Nc1ccc(cc1)-c1ccc(cc1)N=C2 | > 200 µM | > 200 µM |  |
| CC(C)(C)SS(=O)C(C)(C)C (stereo unspecified) | > 97.7 µM | > 97.7 µM |  |
| CN(N)c1cn[nH]c(=O)c1Cl | > 200 µM | > 200 µM |  |
| OCCCCCCCCCCCOc1ccc(C2OCC3(CC=CCC3)CO2)cc1 (stereo unspecified) | > 200 µM | 36.3 µM |  |
| CC(CCC(=O)O)(CCC(=O)O)[N+](=O)[O-] | > 1150 µM | > 1150 µM |  |
| CCCCc1nc(C)oc1C(C)C | > 200 µM | > 200 µM |  |
| O=S(=O)(O)c1ccc(SSc2ccc(S(=O)(=O)O)cc2)cc1 | > 200 µM | > 200 µM |  |
| Cc1cn(C2CC(F)C(CO)O2)c(=O)[nH]c1=O (stereo unspecified) | 0.011 µM | 2 µM |  |
| O=[N+]([O-])c1ccc2n[nH]nc2c1 | > 200 µM | 182 µM |  |
| OCCN=C1Nc2ccc(Cl)cc2C(=S)N2CSC[C@@H]12 | > 200 µM | > 200 µM |  |
| CC1=NN(c2ccc(S(=O)(=O)O)cc2)C(=O)C1N=Nc1ccc(-c2ccc(N=Nc3ccc(OS(=O)(=O)c4ccc(C)cc4)cc3)c(S(=O)(=O)O)c2)cc1 (stereo unspecified) | 100 µM | 151 µM |  |
| Cc1ccc(S(=O)(=O)c2ccc(O)cc2)cc1 | > 200 µM | 129 µM |  |
| COc1ccc(C2c3cc4c(cc3OC(NNc3ccccc3)C2C)OCO4)cc1 (stereo unspecified) | > 200 µM | 11.7 µM |  |
| CC1=CP(=O)(c2ccccc2)CC1 (stereo unspecified) | 0.0631 µM | > 200 µM |  |
| O=c1n(-c2ccccc2)c(=O)n2c(=O)n(-c3ccccc3)c(=O)n12 | > 100 µM | > 100 µM |  |
| COC(=O)C(Cc1ccccc1)C(=O)NC(CNC(=O)OCc1ccccc1)C(=O)OCc1ccccc1 (stereo unspecified) | > 200 µM | 29.5 µM |  |

| Compound | EC50 | IC50 | outcome |
| --- | --- | --- | --- |
| CN(C)c1ccc(/C=c2\[nH]c(=O)/c(=C\c3ccc(N(C)C)cc3)[nH]c2=O)cc1 | > 50.1 µM | > 50.1 µM |  |
| Cc1cc(=O)n2nc(CSc3n[nH]c(=S)s3)sc2n1 | > 200 µM | > 200 µM |  |
| Cn1c(=O)c2ccccc2[n+]2c(-c3cccc([N+](=O)[O-])c3)csc12 | > 200 µM | 148 µM |  |
| C(=Nc1ccc(SSc2ccc(N=C=C(c3ccccc3)c3ccccc3)cc2)cc1)=C(c1ccccc1)c1ccccc1 | > 200 µM | > 200 µM |  |
| CSc1s[s+]c(SC)c1[O-] |  |  | inactive |
| O=c1[nH]oc(NS(=O)(=O)c2ccccc2)c1C1CCCCC1 | > 200 µM | 97.7 µM |  |
| CN(C)C(=S)Nc1ccc(Cl)cc1 | > 200 µM | 52.5 µM |  |
| O=C1OC(CS(=O)(=O)c2ccccc2)CC1O (stereo unspecified) | > 200 µM | > 200 µM |  |
| CCc1cccc(CC)c1NC(=S)N/C=C(\C#N)C(=O)c1ccc2ccccc2c1 |  |  | inactive |
| C[C@]12CCc3nonc3C1CC[C@@H]1C2CC[C@]2(C)NC(=O)CCC12 (stereo partly specified) | > 51.3 µM | > 51.3 µM |  |
| CCOc1cc2c(cc1O)C(=O)C[C@@H]1[C@@H]2CC[C@]2(C)[C@@H](O)CC[C@@H]12 | > 2 µM | 0.0794 µM |  |
| N=c1oc2cc(O)ccc2cc1C(=O)NCc1ccccc1 | > 200 µM | 20 µM |  |
| O=C(O)/C(=C/c1ccc([N+](=O)[O-])cc1)c1ccccc1 | > 490 µM | 95.5 µM |  |
| CCOC(=O)C12CC1(C(=O)OCC)C1CCC2C1 (stereo unspecified) | > 200 µM | > 200 µM |  |
| NC(=O)NNC(O)(C(F)(F)F)C(F)(F)F | > 200 µM | > 200 µM |  |
| O=c1n(C2CCCCC2)c(=C(Cl)Cl)c(=C(Cl)Cl)n1C1CCCCC1 | > 200 µM | > 200 µM |  |
| Cc1nc2c(o1)C(=Nc1ccccc1)c1nc(C)oc1C2=Nc1ccccc1 |  |  | inactive |
| CCOC(=O)C(=Cc1ccco1)C(=O)OCC | > 151 µM | 85.1 µM |  |
| IC[P+]1(c2ccccc2)CCCC1 | > 575 µM | 55 µM |  |
| Cn1c(=O)c2c(nc(NCCCCl)n2CC(=O)NCCCCl)n(C)c1=O | > 200 µM | > 200 µM |  |
| COc1ccccc1C1=NC(C)(C)CO1 | > 1230 µM | > 1230 µM |  |
| CC1=C(O)C(=O)C2C(=O)C1C(C)C2c1ccc(Cl)cc1 (stereo unspecified) | > 123 µM | > 123 µM |  |
